Laboratory results as given in ChEMBL document CHEMBL1158209, “Sindurol and Nephthoside: New Tetraprenyltoluquinols from the Soft Coral Sinularia dura and Nephthea sp” (J Nat Prod, 1996).
Values after ≈ are worked out from the molar mass of the structure shown.

The compounds below were run on P388 (assay: Cytotoxicity against mouse P388 cells).
Type: functional, cell-based

SMILES | IC50 [µg/mL]
CC(C)=CCC/C(C)=C/CC/C(C)=C/CC/C(C)=C/Cc1cc(O)c(C)cc1O | 2 (≈ 5.04 µM)
CC(=O)O[C@@H]1CO[C@@H](Oc2cc(C/C=C(\C)CC/C=C(\C)CC/C=C(\C)CCC=C(C)C)c(O)cc2C)[C@@H](O)[C@@H]1O [NEPHTHOSIDE MANOACETATE] | 2 (≈ 3.5 µM)
CC(C)=CCC/C(C)=C/CC/C(C)=C/CC/C(C)=C/Cc1cc(O[C@@H]2OC[C@@H](O)[C@@H](O)[C@@H]2O)c(C)cc1O [NEPHTHOSIDE] | 2 (≈ 3.78 µM)
CC(=O)OCC(O)(C(Cc1cc(O)c(C)cc1O)OC(C)=O)C12CCC(C)(CC(/C=C(\C)CCC=C(C)C)O1)O2 (centres undefined) [SINDUROL] | 1.2 (≈ 2.14 µM)
